Consider 13 compounds from ChEMBL document CHEMBL1201862, “PubChem BioAssay data set” (2004).

Some test systems named below: 786-0; CCRF-CEM; EKVX; HCT-15; HT-29; Hs-578T; K562; KM12; MOLT-4; NCI-H226; NCI-H23; OVCAR-5; SK-MEL-28; SK-OV-3; SNB-75; COLO 205; MDA-MB-435; NCI-H522.
Common to all, as to experiment: NCI anticancer screen, dose series, 48 h

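Cells were grown in 96-well plates and exposed to each compound for 48 hours at five concentrations; endpoints were interpolated linearly between bracketing concentrations, or set to the highest concentration if not reached. The concentration for 50% growth inhibition is given as GI50.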 Active and inactive are the calls of the source. No stated cut-off is given here; in the data, active = GI50 up to about 1.1 µM and inactive = higher.

Take `O=C1CCCC2=C1CC1=C(CCCC1=O)N2c1ccc([N+](=O)[O-])cc1`: the GI50 with 786-0 was > 100 µM (inactive); in the experiment with CCRF-CEM, > 100 µM (inactive); in the experiment with EKVX, > 100 µM (inactive); with HCT-15 it was > 100 µM; in the experiment with HT-29, > 100 µM (inactive); in the experiment on Hs-578T, > 100 µM (inactive). Further, the GI50 in the experiment with K562, in the experiment with KM12, in the experiment with MOLT-4, in the experiment on NCI-H226, in the experiment on NCI-H23 and with OVCAR-5 was > 100 µM (inactive) in each case. Further, the GI50 in the experiment on SK-MEL-28, in the experiment with SK-OV-3 and with SNB-75 was > 100 µM (inactive) each time.

Consider `CCOC(=O)C1NCCc2c1[nH]c1ccccc21` (stereo not given), for which the GI50 in the experiment on 786-0 is > 10 µM (inactive); with CCRF-CEM, > 10 µM (inactive); in the experiment with COLO 205, > 10 µM (inactive); in the experiment with EKVX, > 10 µM (inactive); in the experiment with HCT-15 it was > 10 µM; in the experiment on HT-29 it was > 10 µM (inactive). The GI50 in the experiment with K562, in the experiment with KM12, in the experiment on MDA-MB-435, in the experiment with MOLT-4, in the experiment with NCI-H23 and in the experiment with NCI-H522 was > 10 µM (inactive) in each case. For the same compound, the GI50 in the experiment on SK-MEL-28, in the experiment with SK-OV-3 and with SNB-75 was > 10 µM (inactive) in each case.

Consider `CCOc1ccc(Nc2nc3c(s2)C(=O)c2ccccc2C3=O)cc1`, for which the GI50 is 14.2 µM (inactive) in the experiment on 786-0; 7.82 µM (inactive) with CCRF-CEM; 19.8 µM (inactive) in the experiment with COLO 205; 20 µM (inactive) in the experiment with EKVX; 2.55 µM with HCT-15; 12.1 µM (inactive) with Hs-578T. In addition, the GI50 is 3.36 µM (inactive) in the experiment with K562; 13.7 µM (inactive) with KM12; 1.79 µM (inactive) in the experiment with MDA-MB-435; 5.08 µM (inactive) in the experiment on MOLT-4; 8.13 µM (inactive) in the experiment with NCI-H23; 7.5 µM (inactive) with NCI-H522. The GI50 was 21.6 µM (inactive) with OVCAR-5, 18.9 µM (inactive) in the experiment with SK-MEL-28, 19.7 µM (inactive) in the experiment with SK-OV-3 and 11.1 µM (inactive) in the experiment with SNB-75.

On to `CC(C)=CCC[C@@H](C)C1=C(O)C(=O)C(C)=C(N)C1=O`, for which the GI50 in the experiment on 786-0 was 33.4 µM (inactive); in the experiment on CCRF-CEM it was 6.11 µM (inactive); in the experiment with COLO 205, 27.9 µM (inactive); in the experiment on EKVX, 36.1 µM (inactive); with HCT-15, 4.85 µM; with HT-29, 40.8 µM (inactive). Besides, the GI50 was 38.9 µM (inactive) with Hs-578T; 23.2 µM (inactive) in the experiment with K562; 23.3 µM (inactive) with KM12; 41 µM (inactive) in the experiment on MDA-MB-435; 6.5 µM (inactive) in the experiment with MOLT-4; 20.8 µM (inactive) in the experiment with NCI-H226. The GI50 in the experiment on NCI-H23 is 27.3 µM (inactive); with OVCAR-5, 81.5 µM (inactive); with SK-MEL-28, 34.8 µM (inactive); in the experiment on SK-OV-3, 27.3 µM (inactive); in the experiment with SNB-75 it was 28.8 µM (inactive).

`C[n+]1cc2cc(O)c(O)cc2c2ccc3cc(O)c(O)cc3c21.c1ccncc1`: the GI50 was 2.03 µM (inactive) with 786-0; 1.17 µM (inactive) with CCRF-CEM; 10.3 µM (inactive) in the experiment with COLO 205; 3.37 µM (inactive) with EKVX; 2.47 µM in the experiment on HCT-15; 3.3 µM (inactive) with HT-29. The GI50 in the experiment with K562 is 1.71 µM (inactive); in the experiment with KM12, 3.96 µM (inactive); in the experiment with MDA-MB-435 it was 2.46 µM (inactive); with MOLT-4 it was 0.912 µM (active); in the experiment on NCI-H226, 4.86 µM (inactive); with NCI-H23 it was 2.42 µM (inactive). The GI50 in the experiment on NCI-H522 was 0.617 µM (active); in the experiment with OVCAR-5 it was 6.24 µM (inactive); in the experiment on SK-MEL-28, 4.66 µM (inactive); with SK-OV-3 it was 4.33 µM (inactive); with SNB-75, 3.31 µM (inactive).

`CN(C)c1ccc(/C=C2\C[C@H]3[C@@H]4CC=C5C[C@@H](O)CC[C@]5(C)[C@H]4CC[C@]3(C)C2=O)cc1`: the GI50 in the experiment on 786-0 was 16.3 µM (inactive); in the experiment with COLO 205, 23.7 µM (inactive); in the experiment on EKVX, 23.6 µM (inactive); in the experiment on HCT-15 it was 34.5 µM; in the experiment on HT-29, 16.3 µM (inactive); in the experiment with K562, 32.8 µM (inactive). Also, the GI50 was 38.5 µM (inactive) in the experiment with KM12; 79.3 µM (inactive) in the experiment with MOLT-4; 20 µM (inactive) in the experiment on NCI-H226; 25.6 µM (inactive) in the experiment on NCI-H23; 17.9 µM (inactive) in the experiment on OVCAR-5; 16.2 µM (inactive) in the experiment on SK-MEL-28. Further, the GI50 was 25.8 µM (inactive) in the experiment on SK-OV-3 and 23.2 µM (inactive) in the experiment on SNB-75.

`CC(=O)NNC(=S)N/C=C1/C(=O)C=C(C)OC1=O`: the GI50 was > 100 µM (inactive) with 786-0; > 100 µM (inactive) in the experiment with COLO 205; > 100 µM (inactive) in the experiment with EKVX; > 100 µM with HCT-15; > 100 µM (inactive) in the experiment on HT-29; > 100 µM (inactive) in the experiment with KM12. Moreover, the GI50 in the experiment with MDA-MB-435, in the experiment with MOLT-4, in the experiment with NCI-H226, in the experiment with NCI-H23, with OVCAR-5 and with SK-MEL-28 was > 100 µM (inactive) in each case. Besides, the GI50 in the experiment with SK-OV-3 and in the experiment with SNB-75 was > 100 µM (inactive) throughout.

With `CC1CCC2CC1NC(=O)CCOCCC(=O)NC2(C)C` (stereo not given), the GI50 in the experiment on 786-0 was > 100 µM (inactive); in the experiment on CCRF-CEM, > 100 µM (inactive); in the experiment on COLO 205, > 100 µM (inactive); in the experiment with EKVX it was > 100 µM (inactive); in the experiment on HCT-15, > 100 µM; with HT-29, > 100 µM (inactive). Also, the GI50 in the experiment with K562, in the experiment on KM12, in the experiment on MDA-MB-435, in the experiment on MOLT-4, with NCI-H23 and in the experiment on NCI-H522 was > 100 µM (inactive) throughout. The GI50 in the experiment with OVCAR-5, in the experiment on SK-MEL-28, in the experiment on SK-OV-3 and in the experiment on SNB-75 was > 100 µM (inactive) in each case.

In the case of `COc1ccc(N2C(=O)C3c4[nH]c5ccc(C)cc5c4C4CCC(C)CC4C3C2=O)cc1` (stereo not given), the GI50 in the experiment on 786-0 was 25.7 µM (inactive); in the experiment on CCRF-CEM it was 18.5 µM (inactive); with COLO 205, > 100 µM (inactive); in the experiment on EKVX, > 100 µM (inactive); with HCT-15, > 100 µM; in the experiment with HT-29 it was > 100 µM (inactive). For the same compound, the GI50 was 4.65 µM (inactive) with Hs-578T; 66.7 µM (inactive) in the experiment on K562; > 100 µM (inactive) in the experiment on MDA-MB-435; 67.5 µM (inactive) in the experiment with MOLT-4; > 100 µM (inactive) in the experiment with NCI-H226; 59 µM (inactive) with NCI-H23. The GI50 was 92 µM (inactive) in the experiment on NCI-H522, > 100 µM (inactive) in the experiment with OVCAR-5 and 25.3 µM (inactive) in the experiment on SK-OV-3.

Consider `Cc1cn(CCOCCOC(=O)NC(CCCNC(N)=O)C(=O)O)c(=O)[nH]c1=O` (stereo not given), for which the GI50 with 786-0 is > 100 µM (inactive); in the experiment on CCRF-CEM it was > 100 µM (inactive); in the experiment with COLO 205, > 100 µM (inactive); in the experiment on EKVX, > 100 µM (inactive); in the experiment on HCT-15, > 100 µM; in the experiment with HT-29, > 100 µM (inactive). For the same compound, the GI50 in the experiment on Hs-578T, in the experiment with K562, in the experiment on KM12, in the experiment on MDA-MB-435, in the experiment with MOLT-4 and in the experiment on NCI-H226 was > 100 µM (inactive) each time. For the same compound, the GI50 in the experiment with NCI-H23, with OVCAR-5, with SK-MEL-28, with SK-OV-3 and in the experiment with SNB-75 was > 100 µM (inactive) in each case.

As to `COC(=O)[C@H](NC(=O)OC(C)(C)C)[C@H]1COC(C)(C)O1`, the GI50 is > 100 µM (inactive) in the experiment on 786-0; > 100 µM (inactive) in the experiment on CCRF-CEM; > 100 µM (inactive) in the experiment on COLO 205; > 100 µM (inactive) in the experiment with EKVX; > 100 µM in the experiment with HCT-15; > 100 µM (inactive) in the experiment with HT-29. Further, the GI50 with K562, with KM12, in the experiment on MDA-MB-435, in the experiment with MOLT-4, in the experiment on NCI-H23 and in the experiment on NCI-H522 was > 100 µM (inactive) throughout. Besides, the GI50 in the experiment with OVCAR-5, with SK-MEL-28 and in the experiment with SK-OV-3 was > 100 µM (inactive) throughout.

Consider `O=C(NCc1cccs1)OC1CC2CCC1C2` (stereo not given), for which the GI50 in the experiment on 786-0 was > 100 µM (inactive); in the experiment with CCRF-CEM it was > 100 µM (inactive); in the experiment on COLO 205 it was > 100 µM (inactive); with EKVX it was > 100 µM (inactive); in the experiment with HCT-15, > 100 µM; in the experiment with HT-29, > 100 µM (inactive). The GI50 in the experiment on Hs-578T was 81.5 µM (inactive); with K562 it was > 100 µM (inactive); in the experiment on KM12, > 100 µM (inactive); in the experiment with MDA-MB-435, > 100 µM (inactive); in the experiment on MOLT-4, > 100 µM (inactive); in the experiment on NCI-H226 it was > 100 µM (inactive). Moreover, the GI50 with NCI-H23, in the experiment with NCI-H522, in the experiment with OVCAR-5, with SK-MEL-28 and in the experiment with SK-OV-3 was > 100 µM (inactive) in each case.

Consider `CC12CCC(=O)[C@@]1(C)CCCC2=O` (stereo not given in full), for which the GI50 with 786-0 is > 100 µM (inactive); in the experiment on CCRF-CEM, > 100 µM (inactive); with COLO 205, > 100 µM (inactive); in the experiment on EKVX, > 100 µM (inactive); in the experiment on HCT-15 it was > 100 µM; in the experiment on HT-29, > 100 µM (inactive). Moreover, the GI50 in the experiment with Hs-578T, in the experiment with K562, in the experiment on KM12, in the experiment on MOLT-4, in the experiment on NCI-H226 and in the experiment with NCI-H23 was > 100 µM (inactive) each time. For the same compound, the GI50 was > 100 µM (inactive) in the experiment on NCI-H522; > 100 µM (inactive) with OVCAR-5; > 100 µM (inactive) with SK-MEL-28; > 100 µM (inactive) with SK-OV-3; > 10 µM (inactive) in the experiment on SNB-75.
